Assay results published in US11530244B2, “Cyclic polypeptides for PCSK9 inhibition” (priority 2018, dated 2022).
Read-outs that look alike come from different tables or passages of the source. Starred links: 1 amine or outer side, 2 acyl side, 3 side chain; linkers in the order of their positions; H or OH if unused. Positions of bridges follow the written chain, without caps; N, C: chain ends. Non-standard residues stand in square brackets, D forms with d. Residues, ends and D or L forms follow the SMILES beside them. *: point of attachment. 2Furoyl(5-aminomethyl) = O=C(c1ccc(CN[*:1])o1)[*:2]; NHCH2C6H4(p)CH2CH2NH = c1cc(CN[*:1])ccc1CCN[*:2]; X61 = O=C(CCCCC(=O)[*:1])NCc1ccc(CC(=O)[*:2])cc1; Ala(imidazol-2-yl) = N[C@@H](Cc1ncc[nH]1)C(=O)O; Phe(4-COOH) = N[C@@H](Cc1ccc(C(=O)O)cc1)C(=O)O; Trp(5-F) = N[C@@H](Cc1c[nH]c2ccc(F)cc12)C(=O)O; Acetyl(2-(4-imidazolyl)) = O=C(Cc1c[nH]cn1)*; Phe(4-CH2NH2) = NCc1ccc(C[C@H](N)C(=O)O)cc1; X3 = O=C(CCSCc1cc(F)cc(CSCCN[*:1])c1)[*:2]; mXylylene(5-F) = Fc1cc(C[*:1])cc(C[*:2])c1; Heptanedioyl = O=C(CCCCCC(=O)[*:2])[*:1]; Lys(Me3) = C[N+](C)(C)CCCC[C@H](N)C(=O)O; Pro(cis-4-F) = O=C(O)[C@@H]1C[C@H](F)CN1; X4 = O=C(CCSCc1cccc(CSCCN[*:1])c1)[*:2]; Orn(N3) = [N-]=[N+]=NCCC[C@H](N)C(=O)O; mXylylene = c1cc(C[*:1])cc(C[*:2])c1; AEF = NCCOc1ccc(C[C@H](N)C(=O)O)cc1; X53 = C#CCCC[C@H](N[*:1])C(=O)[*:2]; Lys(Me2) = CN(C)CCCC[C@H](N)C(=O)O; X6 = O=C(Cc1ccc(CN[*:2])cc1)[*:1]; X7 = O=C(Cc1ccc(CN[*:1])cc1)[*:2]; Aad = N[C@@H](CCCC(=O)O)C(=O)O; X63 = c1ncc(C[*:2])nc1C[*:1]; αMeP = C[C@@]1(C(=O)O)CCCN1; dOrn = NCCC[C@@H](N)C(=O)O; Dap = NC[C@H](N)C(=O)O; AEEA = NCCOCCOCC(=O)O; Mpa = O=C(O)CCS

Target: PCSK9 (Homo sapiens (Human), UniProt Q8NBP7)
Assay: PCSK9 Alexa FRET Standard assay (displacement of AlexaFluor647 tagged cyclic peptide Reagent A)
Assay type: binding
Settings: 0.5 nM PCSK9, 20 nM AF cyclic peptide Reagent A
How it was run: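 TR-FRET displacement: 0.5 nM biotinylated PCSK9 with 1.25 nM Strep-Eu and 20 nM AlexaFluor-tagged cyclic peptide (final) in 50 mM HEPES pH 7.4, 0.15 M NaCl, 5 mM CaCl2, 0.01% BSA, 0.01% P20, ≥2 h at room temperature. IC50 from sigmoidal fit, converted to Ki via peptide KD; falling Eu counts flagged false positives.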

[1] = PCSK9 Alexa FRET Standard assay, read-out: IC50

Chain of PCSK9 (Q8NBP7 153-692): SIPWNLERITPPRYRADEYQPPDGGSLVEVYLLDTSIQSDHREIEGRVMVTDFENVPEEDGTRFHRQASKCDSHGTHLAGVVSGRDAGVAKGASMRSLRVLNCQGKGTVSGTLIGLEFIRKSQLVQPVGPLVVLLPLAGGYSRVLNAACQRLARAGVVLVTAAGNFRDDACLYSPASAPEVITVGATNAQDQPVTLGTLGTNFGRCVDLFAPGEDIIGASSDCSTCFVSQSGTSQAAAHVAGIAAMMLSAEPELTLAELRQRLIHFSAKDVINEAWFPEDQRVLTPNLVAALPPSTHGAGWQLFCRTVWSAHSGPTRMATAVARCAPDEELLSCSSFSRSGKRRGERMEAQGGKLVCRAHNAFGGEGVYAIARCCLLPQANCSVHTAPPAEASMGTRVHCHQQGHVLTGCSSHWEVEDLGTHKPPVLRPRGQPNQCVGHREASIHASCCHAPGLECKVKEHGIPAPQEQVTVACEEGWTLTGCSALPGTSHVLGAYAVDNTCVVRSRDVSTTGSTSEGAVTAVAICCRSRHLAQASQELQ

Row | SMILES | IC50 [1] | also measured
1 | COc1ccc(C[C@@H]2NC(=O)[C@H]([C@@H](C)O)NC(=O)[C@@H]3C[C@H](F)CN3C(=O)[C@H](Cc3c[nH]c4ccc(F)cc34)NC(=O)[C@H](Cc3c[nH]c4ccc(F)cc34)NC(=O)[C@@H](C)NC(=O)[C@H](CCCCN)NC(=O)[C@@H](NC(=O)Cc3cnc[nH]3)CC(=O)NCCOc3ccc(cc3)C[C@@H](C(N)=O)NC(=O)[C@]3(C)CCCN3C2=O)cc1 [Compound 105] ({Acetyl(2-(4-imidazolyl))}-DK[dA][Trp(5-F)][Trp(5-F)][Pro(cis-4-F)]TY(Me)[αMeP][AEF]-NH2; lactam 1-10) | – | IC50 (IC50, PCSK9 Alexa FRET Standard assay): 1000 to 12100 nM
2 | COc1ccc(C[C@@H]2NC(=O)[C@@H]([C@H](C)O)NC(=O)[C@@H]3C[C@H](F)CN3C(=O)[C@H](Cc3c[nH]c4ccc(F)cc34)NC(=O)[C@H](Cc3c[nH]c4ccc(F)cc34)NC(=O)[C@@H](C)NC(=O)Cc3ccc(cc3)CNC(=O)c3ccc(cc3)C[C@@H](C(N)=O)NC(=O)[C@]3(C)CCCN3C2=O)cc1 [Compound 080] ([X7][dA][Trp(5-F)][Trp(5-F)][Pro(cis-4-F)][dT]Y(Me)[αMeP][Phe(4-COOH)]-NH2; lactam N-9) | 1000 to 12100 nM | –
3 | COc1ccc(C[C@@H]2NC(=O)[C@H](Cc3cnc[nH]3)NC(=O)[C@H](CC(=O)O)NC(=O)[C@H](Cc3c[nH]c4ccc(F)cc34)NC(=O)[C@H](Cc3c[nH]c4ccc(F)cc34)NC(=O)[C@@H](C)NC(=O)[C@H](NC(C)=O)CCCCNC(=O)Cc3ccc(cc3)CNC(=O)CCC[C@@H](C(N)=O)NC(=O)[C@]3(C)CCCN3C2=O)cc1 [Compound 433] (Ac-[dK][dA][Trp(5-F)][Trp(5-F)]DHY(Me)[αMeP][Aad]-NH2; linker 1-9 via X6) | 100 to 1000 nM | –
4 | COc1ccc(C[C@@H]2NC(=O)[C@H]([C@@H](C)O)NC(=O)[C@@H]3C[C@H](F)CN3C(=O)[C@H](Cc3c[nH]c4ccc(F)cc34)NC(=O)[C@H](Cc3c[nH]c4ccc(F)cc34)NC(=O)[C@@H](C)NC(=O)CCCCCC(=O)NCc3ccc(cc3)C[C@@H](C(N)=O)NC(=O)[C@]3(C)CCCN3C2=O)cc1 [Compound 125] ([dA][Trp(5-F)][Trp(5-F)][Pro(cis-4-F)]TY(Me)[αMeP][Phe(4-CH2NH2)]-NH2; linker N-8 via Heptanedioyl) | 21000 to 50000 nM | –
5 | COc1ccc(C[C@@H]2NC(=O)[C@H]([C@@H](C)O)NC(=O)[C@@H]3C[C@H](F)CN3C(=O)[C@H](Cc3c[nH]c4ccc(F)cc34)NC(=O)[C@H](Cc3c[nH]c4ccc(F)cc34)NC(=O)[C@@H](C)NC(=O)[C@H](CCCCN)NC(=O)[C@@H](NC(=O)Cc3cnc[nH]3)CC(=O)NCCOc3ccc(cc3)C[C@@H](C(N)=O)NC(=O)[C@]3(C)CCCN3C2=O)cc1 [Compound 106] ({Acetyl(2-(4-imidazolyl))}-DK[dA][Trp(5-F)][Trp(5-F)][Pro(cis-4-F)]TY(Me)[αMeP][AEF]-NH2; lactam 1-10) | – | IC50 (PCSK9 Alexa FRET Standard assay): 1000 to 12100 nM
6 | COc1ccc(C[C@@H]2NC(=O)[C@H](C(C)C)NC(=O)[C@@H]3CCCN3C(=O)[C@H](Cc3c[nH]c4ccc(F)cc34)NC(=O)[C@H](Cc3c[nH]c4ccc(F)cc34)NC(=O)[C@@H](C)NC(=O)[C@H](CCCCN)NC(=O)CCSCc3cccc(c3)CSC[C@@H](C(N)=O)NC(=O)[C@]3(C)CCCN3C2=O)cc1 [Compound 009] ([Mpa]K[dA][Trp(5-F)][Trp(5-F)]PVY(Me)[αMeP]C-NH2; linker 1-10 via mXylylene) | 21000 to 50000 nM | –
7 | CC(=O)N[C@H]1CCCc2cn(nn2)-c2ccc(cc2)C[C@@H](C(N)=O)NC(=O)[C@]2(C)CCCN2C(=O)[C@H](Cc2ccc(O)cc2)NC(=O)[C@H](Cc2cnc[nH]2)NC(=O)[C@H](CC(=O)O)NC(=O)[C@H](Cc2c[nH]c3ccc(F)cc23)NC(=O)[C@H](Cc2c[nH]c3ccc(F)cc23)NC(=O)CNC(=O)[C@H](C)NC1=O [Compound 337] | 21000 to 50000 nM | –
8 | COc1ccc(C[C@@H]2NC(=O)[C@H]([C@@H](C)O)NC(=O)[C@@H]3CCCN3C(=O)[C@H](Cc3c[nH]c4ccc(F)cc34)NC(=O)[C@H](Cc3c[nH]c4ccc(F)cc34)NC(=O)[C@@H](C)NC(=O)[C@H](CCCCN)NC(=O)CCSCc3cc(F)cc(c3)CSC[C@@H](C(N)=O)NC(=O)[C@]3(C)CCCN3C2=O)cc1 [Compound 041] ([Mpa]K[dA][Trp(5-F)][Trp(5-F)]PTY(Me)[αMeP]C-NH2; linker 1-10 via mXylylene(5-F)) | 21000 to 50000 nM | –
9 | COc1ccc(C[C@@H]2NC(=O)[C@H](Cc3cnc[nH]3)NC(=O)[C@H](CC(=O)O)NC(=O)[C@H](Cc3c[nH]c4ccc(F)cc34)NC(=O)[C@H](Cc3c[nH]c4ccc(F)cc34)NC(=O)[C@@H](C)NC(=O)CCCCC(=O)NCc3ccc(cc3)CC(=O)NC[C@@H](C(N)=O)NC(=O)[C@]3(C)CCCN3C2=O)cc1 [Compound 412] ([dA][Trp(5-F)][Trp(5-F)]DHY(Me)[αMeP][Dap]-NH2; linker N-8 via X61) | 1000 to 12100 nM | –
10 | COc1ccc(C[C@@H]2NC(=O)[C@H](Cc3cnc[nH]3)NC(=O)[C@H](CC(=O)O)NC(=O)[C@H](Cc3c[nH]c4ccc(F)cc34)NC(=O)[C@H](Cc3c[nH]c4ccc(F)cc34)NC(=O)[C@@H](C)NC(=O)[C@H](CCCCN)NC(=O)[C@@H](NC(C)=O)CC(=O)NCc3ccc(cc3)CCNC(=O)[C@]3(C)CCCN3C2=O)cc1 [Compound 411] (Ac-DK[dA][Trp(5-F)][Trp(5-F)]DHY(Me)[αMeP]; linker 1-C via NHCH2C6H4(p)CH2CH2NH) | 1000 to 12100 nM | –

Continued, in another order:

Row | IC50 [1] | SMILES | also measured
11 | 100 to 1000 nM | C#CCCC[C@@H]1NC(=O)[C@H](Cc2c[nH]c3ccc(F)cc23)NC(=O)[C@H](CCCN=[N+]=[N-])NC(=O)[C@@H](C)NC(=O)[C@H](C)NC(=O)CCSCc2cccc(c2)CSCCNC(=O)[C@]2(C)CCCN2C(=O)[C@H](Cc2ccc(OC)cc2)NC(=O)[C@H]([C@@H](C)O)NC1=O [Compound 078] (cyclo(A[dA][Orn(N3)][Trp(5-F)][X53]TY(Me)[αMeP][X4])) | –
12 | 0.11 to 100 nM | COc1ccc(C[C@@H]2NC(=O)[C@@H]3CCCC(=O)N[C@@H]4C[C@H](C(=O)N3)N(C4)C(=O)[C@H](Cc3c[nH]c4ccc(F)cc34)NC(=O)[C@H](Cc3c[nH]c4ccc(F)cc34)NC(=O)[C@@H](C)NC(=O)[C@H](CCCCN)NC(=O)CCSCc3cccc(c3)CSCCNC(=O)[C@]3(C)CCCN3C2=O)cc1 [Compound 522] | –
13 | 1000 to 12100 nM | COc1ccc(C[C@@H]2NC(=O)[C@H](Cc3ncc[nH]3)NC(=O)[C@H](CC(=O)O)NC(=O)[C@H](Cc3c[nH]c4ccc(F)cc34)NC(=O)[C@H](Cc3c[nH]c4ccc(F)cc34)NC(=O)[C@@H](C)NC(=O)[C@H](CCCCN(C)C)NC(=O)CCSCc3cc(F)cc(c3)CSCCNC(=O)[C@]3(C)CCCN3C2=O)cc1 [Compound 465] (cyclo(D[Ala(imidazol-2-yl)]Y(Me)[αMeP][X3][Lys(Me2)][dA][Trp(5-F)][Trp(5-F)])) | –
14 | 1000 to 12100 nM | COc1ccc(C[C@@H]2NC(=O)[C@H](Cc3ncc[nH]3)NC(=O)[C@H](CC(=O)O)NC(=O)[C@H](Cc3c[nH]c4ccc(F)cc34)NC(=O)[C@H](Cc3c[nH]c4ccc(F)cc34)NC(=O)[C@@H](C)NC(=O)[C@H](CCCC[N+](C)(C)C)NC(=O)CCSCc3cc(F)cc(c3)CSCCNC(=O)[C@]3(C)CCCN3C2=O)cc1 [Compound 462] (cyclo(D[Ala(imidazol-2-yl)]Y(Me)[αMeP][X3][Lys(Me3)][dA][Trp(5-F)][Trp(5-F)])) | –
15 | 0.11 to 100 nM | COc1ccc(C[C@@H]2NC(=O)[C@H](Cc3ncc[nH]3)NC(=O)[C@H](CC(=O)O)NC(=O)[C@H](Cc3c[nH]c4ccc(F)cc34)NC(=O)[C@H](Cc3c[nH]c4ccc(F)cc34)NC(=O)[C@@H](C)NC(=O)[C@H](CNC(=O)COCCOCCN)NC(=O)CCSCc3cccc(c3)CSCCNC(=O)[C@]3(C)CCCN3C2=O)cc1 [Compound 448] (cyclo(D[Ala(imidazol-2-yl)]Y(Me)[αMeP][X4][Dap](AEEA)[dA][Trp(5-F)][Trp(5-F)])) | –
16 | 100 to 1000 nM | C[C@H]1NC(=O)[C@H](CCCCN)NC(=O)CCSCc2cccc(c2)CSC[C@@H](C(N)=O)NC(=O)[C@]2(C)CCCN2C(=O)[C@H](Cc2ccc(O)cc2)NC(=O)C2=CC=C(CNC(=O)[C@H](Cc3c[nH]c4ccc(F)cc34)NC(=O)[C@H](Cc3c[nH]c4ccc(F)cc34)NC1=O)O2 [Compound 429] ([Mpa]K[dA][Trp(5-F)][Trp(5-F)][2Furoyl(5-aminomethyl)]Y[αMeP]C-NH2; linker 1-9 via mXylylene) | –
17 | 100 to 1000 nM | COc1ccc(C[C@@H]2NC(=O)[C@H](Cc3ncc[nH]3)NC(=O)[C@H](CC(=O)O)NC(=O)[C@H](Cc3c[nH]c4ccc(F)cc34)NC(=O)[C@H](Cc3c[nH]c4ccc(F)cc34)NC(=O)[C@@H](C)NC(=O)[C@H](CCCCN(C)C)NC(=O)CCSCc3cccc(c3)CSCCNC(=O)[C@]3(C)CCCN3C2=O)cc1 [Compound 463] (cyclo(D[Ala(imidazol-2-yl)]Y(Me)[αMeP][X4][Lys(Me2)][dA][Trp(5-F)][Trp(5-F)])) | –
18 | 1000 to 12100 nM | COc1ccc(C[C@@H]2NC(=O)[C@H]([C@@H](C)O)NC(=O)[C@@H]3CCCN3C(=O)[C@H](Cc3c[nH]c4ccc(F)cc34)NC(=O)[C@H](Cc3c[nH]c4ccc(F)cc34)NC(=O)[C@@H](C)NC(=O)[C@H](CCCCN)NC(=O)CCSCc3cncc(n3)CSC[C@@H](C(N)=O)NC(=O)[C@]3(C)CCCN3C2=O)cc1 [Compound 090] ([Mpa]K[dA][Trp(5-F)][Trp(5-F)]PTY(Me)[αMeP]C-NH2; linker 1-10 via X63) | –
19 | 21000 to 50000 nM | C[C@@]12CCCN1C(=O)[C@H](Cc1ccc(O)cc1)NC(=O)[C@H](Cc1cnc[nH]1)NC(=O)[C@H](CC(=O)O)NC(=O)[C@H](Cc1c[nH]c3ccc(F)cc13)NC(=O)[C@H](Cc1c[nH]c3ccc(F)cc13)NC(=O)CNC(=O)[C@@H](CCCN)NC(=O)CCSCc1cccc(c1)CSC[C@@H](C(N)=O)NC2=O [Compound 356] ([Mpa][dOrn]G[Trp(5-F)][Trp(5-F)]DHY[αMeP]C-NH2; linker 1-10 via mXylylene) | –
